Reference: BindingDB's records for doi:10.1074/jbc.M402433200 (University of Bristol, 2004)

Key:
[1] = biological target: L-lactate dehydrogenase B chain (Homo sapiens, UniProt P07195); assay: Lactate Dehydrogenase Inhibition Assay
Text: (§1) An LDH enzymatic assay developed for high throughput format was used. The dehydrogenase reaction was run in the lactate to pyruvate direction and coupled with the ability of diaphorase to reduce p-iodonitrotetrazolium violet using the NADH generated in the conversion of lactate to pyruvate. The progression of the coupling reaction was monitored as the increase of absorbance at 492 nm. Positive hits were subjected to additional analysis to determine IC50 values.

[2] = biological target: L-lactate dehydrogenase (Plasmodium falciparum (isolate CDC / Honduras), UniProt Q27743); assay: Lactate Dehydrogenase Inhibition Assay; conditions: pH 7.5; 25 °C
Sequence of L-lactate dehydrogenase (Q27743 whole entry): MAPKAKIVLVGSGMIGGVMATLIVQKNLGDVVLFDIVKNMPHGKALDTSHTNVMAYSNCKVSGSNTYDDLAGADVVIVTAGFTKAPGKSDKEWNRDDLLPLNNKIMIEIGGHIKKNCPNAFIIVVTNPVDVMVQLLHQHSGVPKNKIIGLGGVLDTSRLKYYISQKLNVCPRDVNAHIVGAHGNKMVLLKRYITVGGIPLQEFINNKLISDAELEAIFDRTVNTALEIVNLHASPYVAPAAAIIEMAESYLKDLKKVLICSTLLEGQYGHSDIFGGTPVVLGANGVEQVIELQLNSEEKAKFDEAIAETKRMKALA
Text: as §1

Sequence of L-lactate dehydrogenase B chain (P07195 whole entry): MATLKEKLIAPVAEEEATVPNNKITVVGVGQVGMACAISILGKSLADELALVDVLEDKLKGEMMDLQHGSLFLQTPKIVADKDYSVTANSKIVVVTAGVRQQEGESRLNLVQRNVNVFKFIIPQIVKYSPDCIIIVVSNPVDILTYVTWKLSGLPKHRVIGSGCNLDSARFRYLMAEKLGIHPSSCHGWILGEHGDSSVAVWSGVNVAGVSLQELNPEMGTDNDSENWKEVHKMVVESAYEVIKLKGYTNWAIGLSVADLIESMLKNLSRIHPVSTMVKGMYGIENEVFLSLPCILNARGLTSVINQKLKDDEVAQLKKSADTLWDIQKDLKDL

SMILES	IC50 [1] [µM]	IC50 [2] [µM]	Ki [2] [µM]
O=C(O)c1cnon1 [1,2,5-oxadiazole-3-carboxylic acid]	> 200	> 200	
O=C(O)c1c(O)nnn1Cc1ccccc1 [1-benzyl-4-hydroxy-1H-1,2,3-triazole-5-carboxylic acid]	> 100	> 100	
O=C(O)c1cnn[nH]1 [1H-1,2,3-triazole-5-carboxylic acid]	> 200	98	
O=C(O)Cc1no[nH]c1=O [2-(4-hydroxy-1,2,5-oxadiazol-3-yl)acetic acid]	> 200	> 200	
O=C(O)c1nn(Cc2ccccc2)[nH]c1=O [2-benzyl-5-hydroxy-2H-1,2,3-triazole-4-carboxylic acid]	> 100	> 100	
Cn1occ(C(=O)O)c1=O [2-methyl-3-oxo-2,3-dihydro-1,2-oxazole-4-carboxylic acid]	> 100	> 100	
O=C(O)c1conc1O [3-hydroxy-1,2-oxazole-4-carboxylic acid]	54	1.1	0.47
Cc1o[nH]c(=O)c1C(=O)O [3-hydroxy-5-methyl-1,2-oxazole-4-carboxylic acid]	> 100	> 100	
COc1nocc1C(=O)O [3-methoxy-1,2-oxazole-4-carboxylic acid]	> 100	> 100	
O=C(O)c1nonc1NCCO [4-[(2-hydroxyethyl)amino]-1,2,5-oxadiazole-3-carboxylic acid]	> 200	> 200	
Nc1nonc1C(=O)O [4-amino-1,2,5-oxadiazole-3-carboxylic acid]	> 200	> 200	
Nc1nsnc1C(=O)O [4-amino-1,2,5-thiadiazole-3-carboxylic acid]	> 100	> 100	
O=C(O)c1nonc1O [4-hydroxy-1,2,5-oxadiazole-3-carboxylic acid]	72.1	0.65	0.21

The next lines start with the values.

IC50 [1] [µM]	IC50 [2] [µM]	Ki [2] [µM]	SMILES
10.3	0.14	0.29	O=C(O)c1nsnc1O [4-hydroxy-1,2,5-thiadiazole-3-carboxylic acid]
> 100	81		O=C(O)c1noc(C(=O)O)c1O [4-hydroxy-1,2-oxazole-3,5-dicarboxylic acid]
> 100	16		O=C(O)c1nocc1O [4-hydroxy-1,2-oxazole-3-carboxylic acid]
> 100	> 100		Cn1nnc(O)c1C(=O)O [4-hydroxy-1-methyl-1H-1,2,3-triazole-5-carboxylic acid]
> 100	> 100		COc1nsnc1C(=O)O [4-methoxy-1,2,5-thiadiazole-3-carboxylic acid]
> 200	> 200		O=C(O)c1nonc1OC/C=C/c1ccccc1 [4-{[(2E)-3-phenylprop-2-en-1-yl]oxy}-1,2,5-oxadiazole-3-carboxylic acid]
> 100	> 100		Cn1nc(O)c(C(=O)O)n1 [5-hydroxy-2-methyl-2H-1,2,3-triazole-4-carboxylic acid]
> 200	> 200		O=C(OCc1ccc(Cl)c(Cl)c1)c1no[nH]c1=O [(3,4-dichlorophenyl)methyl 4-hydroxy-1,2,5-oxadiazole-3-carboxylate]
> 100	> 100		CCOC(=O)c1co[nH]c1=O [ethyl 3-hydroxy-1,2-oxazole-4-carboxylate]
> 200	> 200		CCOC(=O)c1nonc1OCc1ccc(OC)cc1 [ethyl 4-[(4-methoxyphenyl)methoxy]-1,2,5-oxadiazole-3-carboxylate]
> 100	> 100		CCOC(=O)c1nonc1O [ethyl 4-hydroxy-1,2,5-oxadiazole-3-carboxylate]
> 100	> 100		CCOC(=O)c1c[nH]oc1=O [ethyl 5-hydroxy-1,2-oxazole-4-carboxylate]
> 100	> 100		COC(=O)c1c(C)[nH]oc1=O [methyl 5-hydroxy-3-methyl-1,2-oxazole-4-carboxylate]
